Experimental data as given in patent US12084444B2, “Spiro-lactam NMDA modulators and methods of using same” (Tenacia Biotechnology (Hong Kong) Co., Limited, priority 2016, dated 2024).

Key:
IV pharmacokinetics = test: IV pharmacokinetics; set-up: species or system Sprague Dawley rats; conditions: Sprague Dawley, in vivo, rat, 2 mg/kg, normal saline
Procedure: Sprague Dawley rats were dosed intravenously using a normal saline formulation containing 2 mg/kg of the compounds identified in the below table. The table below summarizes the results of the IV pharmacokinetics.

[1] = target: T1, NMDAR2C expressing HEK cell membranes (Homo sapiens, UniProt Q14957); test: NMDAR agonist assay, [3H]MK-801 binding, NMDAR2C; assay type: biochemical; conditions: 50 μM glutamate
T1 construct: expressed in transfected cells; host or cells: HEK cells (membrane extract)
T1 sequence (Q14957 20-1233, other chains not shown): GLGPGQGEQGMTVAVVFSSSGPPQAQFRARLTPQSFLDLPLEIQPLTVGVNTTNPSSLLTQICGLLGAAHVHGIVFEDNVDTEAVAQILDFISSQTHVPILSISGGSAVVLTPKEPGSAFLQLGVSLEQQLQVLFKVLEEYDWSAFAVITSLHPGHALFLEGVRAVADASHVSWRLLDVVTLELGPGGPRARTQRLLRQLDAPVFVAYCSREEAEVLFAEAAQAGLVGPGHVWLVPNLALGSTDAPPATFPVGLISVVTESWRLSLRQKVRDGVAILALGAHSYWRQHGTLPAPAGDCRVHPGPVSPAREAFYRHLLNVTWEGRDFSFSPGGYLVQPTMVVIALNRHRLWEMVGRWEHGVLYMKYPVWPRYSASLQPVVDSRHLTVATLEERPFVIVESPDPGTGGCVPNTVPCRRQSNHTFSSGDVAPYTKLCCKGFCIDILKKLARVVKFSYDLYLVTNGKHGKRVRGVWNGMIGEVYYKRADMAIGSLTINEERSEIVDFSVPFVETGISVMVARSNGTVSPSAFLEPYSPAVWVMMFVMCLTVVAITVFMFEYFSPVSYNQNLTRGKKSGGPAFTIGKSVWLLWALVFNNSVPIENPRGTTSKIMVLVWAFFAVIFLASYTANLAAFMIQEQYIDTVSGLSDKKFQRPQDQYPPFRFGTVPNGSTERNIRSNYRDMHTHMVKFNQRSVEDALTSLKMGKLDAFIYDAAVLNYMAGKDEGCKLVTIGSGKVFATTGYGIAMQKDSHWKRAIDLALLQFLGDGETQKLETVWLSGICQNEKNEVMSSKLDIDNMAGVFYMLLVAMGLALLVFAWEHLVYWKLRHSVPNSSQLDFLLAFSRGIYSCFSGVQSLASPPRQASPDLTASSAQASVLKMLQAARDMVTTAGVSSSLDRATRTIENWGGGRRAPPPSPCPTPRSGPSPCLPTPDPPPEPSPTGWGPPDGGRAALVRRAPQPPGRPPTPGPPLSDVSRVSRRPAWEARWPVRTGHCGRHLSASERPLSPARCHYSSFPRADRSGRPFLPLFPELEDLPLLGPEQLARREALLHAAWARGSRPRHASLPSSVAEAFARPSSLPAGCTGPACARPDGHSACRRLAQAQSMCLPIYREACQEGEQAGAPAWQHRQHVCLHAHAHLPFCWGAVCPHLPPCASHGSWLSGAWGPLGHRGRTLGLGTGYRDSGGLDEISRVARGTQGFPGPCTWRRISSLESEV
Procedure: (§1) Assays were conducted as described by Moskal et al., “GLYX-13: a monoclonal antibody-derived peptide that acts as an N-methyl-D-aspartate receptor modulator,” Neuropharmacology, 49, 1077-87, 2005. These studies were designed to determine if the test compounds act to facilitate NMDAR activation in NMDAR2A, NMDAR2B, NMDAR2C or NMDAR2D expressing HEK cell membranes as measured by increases in [^3H]MK-801 binding.
(§2) In the assay, 300 μg of NMDAR expressing HEK cell membrane extract protein was preincubated for 15 minutes at 25° C. in the presence of saturating concentrations of glutamate (50 μM) and varying concentrations of test compound (1×10^−15 M-1×10^−7 M), or 1 mM glycine. Following the addition of 0.3 μCi of [^3H]MK-801 (22.5 Ci/mmol), reactions were again incubated for 15 minutes at 25° C. (nonequilibrium conditions). Bound and free [^3H]MK-801 were separated via rapid filtration using a Brandel apparatus.
In analyzing the data, the DPM (disintegrations per minute) of [^3H]MK-801 remaining on the filter were measured for each concentration of test compound or for 1 mM glycine. The DPM values for each concentration of a ligand (N=2) were averaged. The baseline value was determined from the best fit curve of the DPM values modeled using the GraphPad program and the log(agonist) vs. response(three parameters) algorithm was then subtracted from all points in the dataset. The % maximal [^3H]MK-801 binding was then calculated relative to that of 1 mM glycine: all baseline subtracted DPM values were divided by the average value for 1 mM glycine. The EC50 and % maximal activity were then obtained from the best fit curve of the % maximal [^3H]MK-801 binding data modelled using the GraphPad program and the log(agonist) vs. response(three parameters) algorithm. […]

[2] = target: T2, NMDAR2D expressing HEK cell membranes (Homo sapiens, UniProt O15399); test: NMDAR agonist assay, [3H]MK-801 binding, NMDAR2D; assay type: biochemical; conditions: 50 μM glutamate
T2 construct: expressed in transfected cells; host or cells: HEK cells (membrane extract)
T2 sequence (O15399 28-1336, other chains not shown): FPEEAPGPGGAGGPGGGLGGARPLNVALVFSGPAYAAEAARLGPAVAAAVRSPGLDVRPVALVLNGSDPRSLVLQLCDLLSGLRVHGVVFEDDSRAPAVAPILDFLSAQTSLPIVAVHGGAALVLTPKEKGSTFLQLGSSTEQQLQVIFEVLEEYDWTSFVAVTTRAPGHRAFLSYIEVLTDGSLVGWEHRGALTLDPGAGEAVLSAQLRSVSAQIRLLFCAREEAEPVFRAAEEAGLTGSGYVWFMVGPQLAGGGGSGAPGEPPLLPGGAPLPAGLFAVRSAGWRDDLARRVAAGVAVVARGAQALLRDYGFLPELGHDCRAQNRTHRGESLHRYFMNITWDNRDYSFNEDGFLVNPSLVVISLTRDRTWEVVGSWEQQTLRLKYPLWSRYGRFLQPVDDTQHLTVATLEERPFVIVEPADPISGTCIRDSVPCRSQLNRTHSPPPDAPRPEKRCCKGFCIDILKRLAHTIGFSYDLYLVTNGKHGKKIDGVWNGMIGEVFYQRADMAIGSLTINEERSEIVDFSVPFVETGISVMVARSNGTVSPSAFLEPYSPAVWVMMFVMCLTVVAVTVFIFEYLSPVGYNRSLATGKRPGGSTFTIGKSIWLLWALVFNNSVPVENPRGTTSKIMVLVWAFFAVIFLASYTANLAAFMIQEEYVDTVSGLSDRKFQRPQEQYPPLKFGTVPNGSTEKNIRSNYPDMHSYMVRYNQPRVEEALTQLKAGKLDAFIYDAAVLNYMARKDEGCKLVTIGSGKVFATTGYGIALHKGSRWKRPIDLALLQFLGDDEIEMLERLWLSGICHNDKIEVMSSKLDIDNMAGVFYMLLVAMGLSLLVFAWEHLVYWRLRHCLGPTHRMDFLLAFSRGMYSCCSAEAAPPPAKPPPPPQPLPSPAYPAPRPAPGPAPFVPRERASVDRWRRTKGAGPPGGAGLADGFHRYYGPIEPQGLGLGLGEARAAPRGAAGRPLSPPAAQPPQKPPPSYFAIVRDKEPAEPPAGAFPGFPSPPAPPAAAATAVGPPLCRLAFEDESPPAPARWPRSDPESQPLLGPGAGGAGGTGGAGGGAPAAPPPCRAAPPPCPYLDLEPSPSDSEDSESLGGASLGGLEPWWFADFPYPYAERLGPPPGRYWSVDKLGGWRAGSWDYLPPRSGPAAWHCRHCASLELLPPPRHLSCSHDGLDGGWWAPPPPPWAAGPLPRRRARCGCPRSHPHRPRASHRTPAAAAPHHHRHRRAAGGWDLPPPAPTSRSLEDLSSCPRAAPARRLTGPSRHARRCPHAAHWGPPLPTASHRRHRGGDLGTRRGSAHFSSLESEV
Procedure: as §1, §2
(§3) In analyzing the data, the DPM (disintegrations per minute) of [^3H]MK-801 remaining on the filter were measured for each concentration of test compound or for 1 mM glycine. The DPM values for each concentration of a ligand (N=2) were averaged. The baseline value was determined from the best fit curve of the DPM values modeled using the GraphPad program and the log(agonist) vs. response(three parameters) algorithm was then subtracted from all points in the dataset. The % maximal [^3H]MK-801 binding was then calculated relative to that of 1 mM glycine: all baseline subtracted DPM values were divided by the average value for 1 mM glycine. The EC50 and % maximal activity were then obtained from the best fit curve of the % maximal [^3H]MK-801 binding data modelled using the GraphPad program and the log(agonist) vs. response(three parameters) algorithm.
(§4) The tables below summarize the results for the wild type NMDAR agonists NMDAR2A, NMDAR2B, NMDAR2C, and NMDAR2D, and whether the compound is not an agonist (−), is an agonist (+), or is a strong agonist (++), where column A is based on the % maximal [^3H]MK-801 binding relative to 1 mM glycine (−=0; <100%=+; and >100%=++); and column B is based on log EC50 values (0=−; ≥1×10^−9 M (e.g., −8)=+; and <1×10^−9 M (e.g., −10)=++).

[3] = target: T3, NMDAR2D expressing HEK cell membranes (Homo sapiens, UniProt O15399+Q05586); test: NMDAR agonist assay, [3H]MK-801 binding, NMDAR2D; assay type: biochemical; conditions: 50 μM glutamate; read-out: NMDAR2D B: log EC50 (converted)
T3 construct: expressed in transfected cells; host or cells: HEK cells (membrane extract)
T3 sequence (O15399 28-1336, other chains not shown): as above
Procedure: as §1, §2, §3, §4

- AUC(0-t) (IV pharmacokinetics): 3370 ng·h/mL
- C0 (IV pharmacokinetics): 1990 ng/mL
- clearance (IV pharmacokinetics): 9.82 mL/min/kg
- half-life (IV pharmacokinetics): 1.25 h
- Vd (IV pharmacokinetics; read-out: Vss): 0.54 L/kg
- NMDAR2C A: % maximal [3H]MK-801 binding relative to 1 mM glycine [1]: − (−=0)
- NMDAR2D A: % maximal [3H]MK-801 binding relative to 1 mM glycine [2]: + (<100%=+)
- EC50 [3]: < 1 nM
SMILES: COc1ccc(CN2C[C@@]3(CCNC(=O)C3)C2=O)cc1 [Compound AA-2, 2-(4-methoxybenzyl)-2,7-diazaspiro[3.5]nonane-1,6-dione]
